Experimental data: patent US8921424B2, “Histone deacetylase inhibitors, process for preparation and uses thereof” (Zhejiang Hisun Pharmaceutical Co. Ltd., priority 2007, dated 2014)
Read-outs that look alike come from different tables or passages of the source.

Legend:
HDAC6 = HDAC6 (Homo sapiens (Human), UniProt Q9UBN7); assay: In vitro HDACi assay, HDAC6; assay type: biochemical
Description: (§1) In Vitro HDACi Assay for Determination of IC50 Values
(§2) The assay has been carried out in white 96 well formats according to the BIOMOL's method. […] The reaction mixture was incubated at room temperature for 2 hours. Flur de lys Developer was added and the reaction was incubated for 10 min. Briefly, deacetylation of the substrate sensitizes to the developer, which then generates a fluorophore. The fluorophore is excited with 360 nm light and the emitted light (460 nm) is detected on a fluorometric plate reader (Molecular Device Ultra Microplate detection system, MD Group Ltd).
(§3) The analytical software, Prism 4.0 (GraphPad Software Inc) has been used to generate IC50 from a series of data.

HDACs = assay: In vitro HDACi assay (BIOMOL fluorescent-based HDAC activity assay); assay type: biochemical
Description: as §1, §2, §3

[1] = Table 3, read-out: IC50 (nM) HDACs
[2] = Table 4, read-out: HDAC enzyme inhibition activity IC50

HDAC6, sequence (Q9UBN7 whole entry, species assumed): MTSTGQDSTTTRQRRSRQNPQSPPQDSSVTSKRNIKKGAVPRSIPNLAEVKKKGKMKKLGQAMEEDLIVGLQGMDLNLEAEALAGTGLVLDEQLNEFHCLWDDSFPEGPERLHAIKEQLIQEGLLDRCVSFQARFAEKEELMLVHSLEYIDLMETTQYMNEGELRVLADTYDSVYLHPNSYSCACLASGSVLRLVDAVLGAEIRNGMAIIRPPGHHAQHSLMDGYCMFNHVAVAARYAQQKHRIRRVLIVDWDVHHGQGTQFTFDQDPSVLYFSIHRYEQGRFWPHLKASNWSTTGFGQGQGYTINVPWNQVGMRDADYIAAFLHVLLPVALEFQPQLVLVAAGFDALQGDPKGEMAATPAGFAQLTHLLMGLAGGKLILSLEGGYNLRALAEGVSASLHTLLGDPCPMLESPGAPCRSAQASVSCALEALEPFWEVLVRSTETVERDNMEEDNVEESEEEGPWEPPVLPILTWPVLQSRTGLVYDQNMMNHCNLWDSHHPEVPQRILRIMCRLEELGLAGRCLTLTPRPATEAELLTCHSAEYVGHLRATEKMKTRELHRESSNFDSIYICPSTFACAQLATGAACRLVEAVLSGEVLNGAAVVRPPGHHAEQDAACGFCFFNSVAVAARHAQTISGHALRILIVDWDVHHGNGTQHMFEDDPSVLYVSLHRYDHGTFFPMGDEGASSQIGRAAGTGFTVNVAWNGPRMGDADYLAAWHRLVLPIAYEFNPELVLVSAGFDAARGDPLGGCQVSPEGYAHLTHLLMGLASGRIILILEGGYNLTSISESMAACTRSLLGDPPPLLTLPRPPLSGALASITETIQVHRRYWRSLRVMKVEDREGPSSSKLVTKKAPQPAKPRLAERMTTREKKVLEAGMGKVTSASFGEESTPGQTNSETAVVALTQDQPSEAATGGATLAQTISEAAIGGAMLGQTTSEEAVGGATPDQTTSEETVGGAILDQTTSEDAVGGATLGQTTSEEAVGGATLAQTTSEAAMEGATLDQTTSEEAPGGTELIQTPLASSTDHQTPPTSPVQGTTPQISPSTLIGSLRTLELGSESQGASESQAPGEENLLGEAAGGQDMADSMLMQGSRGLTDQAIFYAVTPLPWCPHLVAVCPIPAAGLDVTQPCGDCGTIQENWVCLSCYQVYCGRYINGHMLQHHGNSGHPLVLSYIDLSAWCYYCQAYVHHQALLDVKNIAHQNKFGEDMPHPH

| IC50 (HDAC6) [nM] | IC50 (HDACs; [1]) [nM] | IC50 (HDACs; [2]) [nM] | IC50 (HDAC6; Table 3, read-out: IC50 (nM) HDAC6) [nM] | SMILES |
| --- | --- | --- | --- | --- |
| 488 | 18 | 18000 | – | CCCCc1nc2cc(/C=C/C(=O)NO)ccc2n1CCN(CC)CC [SB939, reference compound] |
| – | 21 | 21000 | 578 | CCCCCNc1cc(/C=C/C(=O)NO)ccc1SCCN(CC)CC [Example 2, 3-(4-(2-(diethylamino)ethylthio)-3-(pentylamino)phenyl)-N-hydroxy-acrylamide] |
